Results published in US11453683B1, “KRas G12D inhibitors” (Mirati Therapeutics, Inc., priority 2019, dated 2022).
Where a name gives a salt, the structure may show the parent alone.

Tested on: KRas G12D-mediated phosphorylation of ERK
Assay: Inhibition of KRas G12D-mediated phosphorylation of ERK in AGS cells
Format: cell-based
Settings: Homo sapiens; AGS cells expressing G12D, 3 hours, phospho-ERK normalized to GAPDH
Protocol: Cells were plated in tissue culture treated 96 well plates at a density of 40,000 cells/well and allowed to attach for 12-14 hours. Diluted compounds were then added in a final concentration of 0.5% DMSO. After 3 hours, the medium was removed, 150 μL of 4.0% formaldehyde was added and the plates incubated at room temperature for 20 minutes. The plates were washed with PBS, and permeabilized with 150 μL of ice cold 100% methanol for 10 minutes. Non-specific antibody binding to the plates was blocked using 100 μL Licor blocking buffer (Li-Cor Biotechnology, Lincoln Nebr.) for 1 hour at room temperature.
The amount of phospho-ERK was determined using an antibody specific for the phosphorylated form of ERK and compared to the amount of GAPDH. Primary antibodies used for the detection were added as follows: Phospho-ERK (Cell Signaling cs-9101) diluted 1:500 and GAPDH (Millipore MAB374) diluted 1:5000 in Licor block+0.05% Tween 20. The plates were incubated for 2 hours at room temperature. The plates were washed with PBS+0.05% Tween 20.
Secondary antibodies used to visualize primary antibodies were added as follows: Anti-rabbit-680 diluted 1:1000 and Anti-mouse-800 diluted 1:1000 both in Licor block+0.05% TweeN2O, and were incubated for 1 hour at room temperature. The plates were washed with PBS+0.05% Tween 20. A 100 μL aliquot of PBS was added to each well and the plates were read on a Li-Cor Odyssey CLX plate reader.
The phospho-ERK (Thr202/Tyr204 signal was normalized to the GAPDH signal for each well and percent of DMSO control values were calculated. IC50 values were generated using a 4-parameter fit of the dose response curve

Compound | IC50
OCCCOc1nc(N2C[C@H]3CC[C@@H](C2)N3)c2cnc(-c3cc(O)cc4ccccc34)c(F)c2n1 [Example 75, 4-(4-((1R,5S)-3,8-diazabicyclo[3.2.1]octan-3-yl)-8-fluoro-2-(3-hydroxypropoxy)pyrido[4,3-d]pyrimidin-7-yl)naphthalen-2-ol] | > 16.7 µM
Fc1c(-c2cccc3cccc(Cl)c23)ncc2c(N3CC4CCC(C3)N4)nc(OC[C@@]34CCCN3C[C@@H](C(F)(F)F)C4)nc12 (mixture of isomers) [Example 382, 4-((1R,5S)-3,8-diazabicyclo[3.2.1]octan-3-yl)-7-(8-chloronaphthalen-1-yl)-8-fluoro-2-(((2S,7aS)-2-(trifluoromethyl)tetrahydro-1H-pyrrolizin-7a(5H)-yl)methoxy)pyrido[4,3-d]pyrimidine) (mixture of cis diastereomers)] | > 16.7 µM
CC(C)Cn1ccnc1CCOc1nc(N2C[C@H]3CC[C@@H](C2)N3)c2cnc(-c3cc(O)cc4ccccc34)c(F)c2n1 [Example 85, 4-(4-((1R,5S)-3,8-diazabicyclo[3.2.1]octan-3-yl)-8-fluoro-2-(2-(1-isobutyl-1H-imidazol-2-yl)ethoxy)pyrido[4,3-d]pyrimidin-7-yl)naphthalen-2-ol] | > 16.7 µM
Fc1ccc2cccc(-c3ncc4c(N5C[C@H]6CC[C@@H](C5)N6)nc(OC[C@@]56CCCN5C[C@H](F)C6)nc4c3F)c2c1F [Example 430, 4-((1R,5S)-3,8-diazabicyclo[3.2.1]octan-3-yl)-7-(7,8-difluoronaphthalen-1-yl)-8-fluoro-2-(((2R,7aS)-2-fluorotetrahydro-1H-pyrrolizin-7a(5H)-yl)methoxy)pyrido[4,3-d]pyrimidine] | 0.141 µM
CN1CCC[C@H]1COc1nc(N2CC3CCC(CCC#N)(C2)N3)c2cnc(-c3cc(O)cc4ccccc34)c(F)c2n1 (stereo partly drawn) [Example 157, 3-(3-(8-fluoro-7-(3-hydroxynaphthalen-1-yl)-2-(((S)-1-methylpyrrolidin-2-yl)methoxy)pyrido[4,3-d]pyrimidin-4-yl)-3,8-diazabicyclo[3.2.1]octan-1-yl)propanenitrile bis(2,2,2-trifluoroacetate)] | 8 µM
CNC(=O)OC[C@H]1CC[C@@]2(COc3nc(N4CC5CCC(C4)N5)c4cnc(-c5cccc6cccc(Cl)c56)c(F)c4n3)CCCN12 [Example 408, (7a-(((4-(3,8-diazabicyclo[3.2.1]octan-3-yl)-7-(8-chloronaphthalen-1-yl)-8-fluoropyrido[4,3-d]pyrimidin-2-yl)oxy)methyl)hexahydro-1H-pyrrolizin-3-yl)methyl methylcarbamate] | 0.238 µM
O=C(OC[C@H]1CC[C@@]2(COc3nc(N4CC5CCC(C4)N5)c4cnc(-c5cccc6cccc(Cl)c56)c(F)c4n3)CCCN12)N1CCCCC1 [Example 444, ((3R,7aR)-7a-(((4-(3,8-diazabicyclo[3.2.1]octan-3-yl)-7-(8-chloronaphthalen-1-yl)-8-fluoropyrido[4,3-d]pyrimidin-2-yl)oxy)methyl)hexahydro-1H-pyrrolizin-3-yl)methyl piperidine-1-carboxylate] | 0.365 µM
CS(=O)(=O)NC[C@H]1CC[C@@]2(COc3nc(N4C[C@H]5CC[C@@H](C4)N5)c4cnc(-c5cccc6cccc(Cl)c56)c(F)c4n3)CCCN12 [Example 420, N-(((3R,7aR)-7a-(((4-((1R,5S)-3,8-diazabicyclo[3.2.1]octan-3-yl)-7-(8-chloronaphthalen-1-yl)-8-fluoropyrido[4,3-d]pyrimidin-2-yl)oxy)methyl)hexahydro-1H-pyrrolizin-3-yl)methyl)methanesulfonamide] | 7.82 µM
CN1CC[C@@H](COc2nc(N3C[C@H]4CC[C@@H](C3)N4)c3cnc(-c4cccc5cccc(Cl)c45)c(F)c3n2)C1 [Example 356, 4-((1R,5S)-3,8-diazabicyclo[3.2.1]octan-3-yl)-7-(8-chloronaphthalen-1-yl)-8-fluoro-2-(((R)-1-methylpyrrolidin-3-yl)methoxy)pyrido[4,3-d]pyrimidine] | 11.9 µM
CN1CCC[C@H]1COc1nc(N2CC3C[C@@H](O)C(C2)N3)c2cnc(-c3cc(O)cc4ccccc34)c(F)c2n1 (stereo partly drawn) [Example 31, 3-(8-fluoro-7-(3-hydroxynaphthalen-1-yl)-2-(((S)-1-methylpyrrolidin-2-yl)methoxy)pyrido[4,3-d]pyrimidin-4-yl)-3,8-diazabicyclo[3.2.1]octan-6-ol] | 2.43 µM
Fc1c(-c2cccc3cccc(OC(F)(F)F)c23)ncc2c(N3C[C@H]4CC[C@@H](C3)N4)nc(OCC34CCCN3CCC4)nc12 [Example 345, 4-((1R,5S)-3,8-diazabicyclo[3.2.1]octan-3-yl)-8-fluoro-2-((tetrahydro-1H-pyrrolizin-7a(5H)-yl)methoxy)-7-(8-(trifluoromethoxy)naphthalen-1-yl)pyrido[4,3-d]pyrimidine] | 1.47 µM
CN1CCC[C@H]1COc1nc(N2C[C@H]3CC[C@@H](C2)N3)c2cnc(-c3cccc4ccc(F)c(Cl)c34)c(F)c2n1 [Example 44, 4-((1R,5S)-3,8-diazabicyclo[3.2.1]octan-3-yl)-7-(8-chloro-7-fluoronaphthalen-1-yl)-8-fluoro-2-(((S)-1-methylpyrrolidin-2-yl)methoxy)pyrido[4,3-d]pyrimidine] | 2.29 µM
C#Cc1c(F)ccc2cccc(-c3ncc4c(N5C[C@H]6CC[C@@H](C5)N6)nc(OCC56CCCN5CCC6)nc4c3F)c12 [Example 189, 4-((1R,5S)-3,8-diazabicyclo[3.2.1]octan-3-yl)-7-(8-ethynyl-7-fluoronaphthalen-1-yl)-8-fluoro-2-((tetrahydro-1H-pyrrolizin-7a(5H)-yl)methoxy)pyrido[4,3-d]pyrimidine] | 0.0241 µM
CN(C)c1ccccc1-c1ncc2c(N3C[C@H]4CC[C@@H](C3)N4)nc(OCC34CCCN3CCC4)nc2c1F [Example 296, 2-(4-((1R,5S)-3,8-diazabicyclo[3.2.1]octan-3-yl)-8-fluoro-2-((hexahydro-1H-pyrrolizin-7a-yl)methoxy)pyrido[4,3-d]pyrimidin-7-yl)-N,N-dimethylaniline] | 8.47 µM
CN(C)C1(C)CN(c2nc(N3C[C@H]4CC[C@@H](C3)N4)c3cnc(-c4cccc5cccc(Cl)c45)c(F)c3n2)C1 [Example 127, 1-(4-((1R,5S)-3,8-diazabicyclo[3.2.1]octan-3-yl)-7-(8-chloronaphthalen-1-yl)-8-fluoropyrido[4,3-d]pyrimidin-2-yl)-N,N,3-trimethylazetidin-3-amine] | > 16.7 µM
C[C@H]1CN2CCC[C@@]2(COc2nc(N3CC4CCC(C3)N4)c3cnc(-c4cccc5cccc(Cl)c45)c(F)c3n2)C1 (stereo in doubt) [Example 227, 4-((1R,5S)-3,8-diazabicyclo[3.2.1]octan-3-yl)-7-(8-chloronaphthalen-1-yl)-8-fluoro-2-((2-methyltetrahydro-1H-pyrrolizin-7a(5H)-yl)methoxy)pyrido[4,3-d]pyrimidine bis-hydrochloride] | 2.98 µM
CN(C)Cc1ccc(COCCNC(=O)O[C@@H]2C[C@@H](COc3nc(N4C[C@H]5CC[C@@H](C4)N5)c4cnc(-c5cccc6cccc(Cl)c56)c(F)c4n3)N(C)C2)cc1 [Example 308, (3R,5S)-5-(((4-((1R,5S)-3,8-diazabicyclo[3.2.1]octan-3-yl)-7-(8-chloronaphthalen-1-yl)-8-fluoropyrido[4,3-d]pyrimidin-2-yl)oxy)methyl)-1-methylpyrrolidin-3-yl (2-((4-((dimethylamino)methyl)benzyl)oxy)ethyl)carbamate] | > 5.56 µM
